Earlier results, collected in patent US20230106535A1, “TECHNIQUES FOR DETERMINING CALCIMIMETIC DRUG ACTIVITY” (Fresenius Medical Care Holdings, Inc., priority 2021, published 2023).

Experiments:
PTH = settings: n=343, Source E
corrected serum calcium = settings: clinical studies
[1] = test system: iPTH, serum ionized Ca, phosphate
[2] = not given; remark: listed apart in the source
[3] = healthy subjects; plasma concentration declines tri-exponentially
[4] = long term studies, within 12 weeks

SMILES: C[C@@H](NCCCc1cccc(C(F)(F)F)c1)c1cccc2ccccc12 [cinacalcet]
- patients with PTH reduction >30% from baseline, clinical results (PTH): 57.7%
- patients with PTH reduction >50% from baseline, clinical results (PTH): 40.2%

SMILES: CC(=O)N[C@H](CSSC[C@H](N)C(=O)O)C(=O)N[C@H](C)C(=O)N[C@H](CCCNC(=N)N)C(=O)N[C@H](CCCNC(=N)N)C(=O)N[C@H](CCCNC(=N)N)C(=O)N[C@H](C)C(=O)N[C@H](CCCNC(=N)N)C(N)=O [etelcalcetide]
- patients with at least one corrected calcium value below 8.3 mg/dl (corrected serum calcium): 79%
- patients with at least one corrected serum calcium value below 7 mg/dl (corrected serum calcium): around 7.6%
- highest changes in Ca concentration ([1]; HD patients, after a 60 mg administration): around 15%
- time to decline of iCa concentration ([1]; HD patients, after administration, dose-dependent): ≤ 10 h
- time to lowering of intact PTH (iPTH) ([1]; after a single dose): ≤ 30 min
- time to iCa plateau ([1]; after a single dose administration): 56 h
- iCa decline before reaching a plateau [1, 4]: around 10%
- phosphate decline before reaching a plateau [1, 4]: ~5%
- time to plateau in iPTH ([1]; post single dose administration): 1 h
- time to decrease in phosphate ([1]; post-administration): about 4 hours
- time after which iCa gradually decreases ([1]; single dose): about 18 hours
- time phosphate remains low ([1]; single dose): about 4 days
- time serum ionized Ca (iCa) remains stable ([1]; single dose): 8 h
- time to steady state of etelcalcetide plasma concentration (clinical studies, multiple 2.5 mg or 5 mg administrations after every HD session): about 4 weeks
- biotransformation resulting in (reversible) formation of SAPC (human, in vivo): roughly 60%
- etelcalcetide undergoing biotransformation (human, in vivo): approximately 90%
- half-life (patients on intermittent HD): ~50 days
- rate of conversion from SAPC to etelcalcetide relative to conversion of etelcalcetide to SAPC ([2]; faster): roughly 16 fold
- rate of conversion from SAPC to etelcalcetide relative to dialytic rate constant ([2]; slower): approximately 200 fold
- etelcalcetide dose cleared by HD ([2]; within 15 minutes, almost all cleared as intact etelcalcetide): approximately 70%
- terminal half-life [3]: around 20 hours
